Converted amounts (≈) assume the structure as drawn. Like-named read-outs stand apart in the source and are kept apart here.
What was measured:
Escherichia coli P-5101 [1] = assay: In vivo efficacy against systemic infection in mice; set-up: species or system male mice (ddY); details: P5101, 168 h, mice, sc, twice about 5 minutes and 6 hours after intraperitoneal infection, observation 7 days, read-out: ED50 (median effective dose)
Method: (§1) Compounds 1,2, A and B were each dissolved in deionized water to prepare injectable solutions having various concentrations.
Each of the injectable solutions was administered to mice infected with each of the bacteria described below under the conditions described below, and the median effective doses (ED50) obtained are shown in Table II.
(§2) male mice (ddY) weighing about 20 g
(2) Escherichia coli P-5101; Intraperitoneal infection with 50 to 100 LD50 (about 9×10^6 cells/mouse) of a bacterial suspension in trypto-soy broth with 4% mucin.
twice, about 5 minutes and 6 hours after infection.
(§3) Note; The numerals in the table show ED50 (mg/kg). ED50 values
(§4) were calculated in accordance with the BehrensKaerber method (Arch. Exp.

Acute toxicity in mice = details: mouse, in vivo, iv, read-out: LD50 (median lethal dose)
Method: Injectable solutions containing compounds 1, 2 and compound A in various concentrations were administered to male mice (ddY) (4 to 8 in each group) in a dose of 0.1 ml per 10 g of body weight. The number of dead mice was counted after a lapse of 7 days, and the value of median lethal dose (LD50, mg/kg) was calculated.
Note: The LD50 values were calculated in accordance with the […]

Escherichia coli P-140a = assay: In vitro antibacterial activity (MIC); type: cell-based; details: for MIC: Escherichia coli, read-out: minimum inhibitory concentration (MIC)
Description: (§5) The numerals in the table show minimum inhibitory concentrations (MIC)
(§6) *Clinically isolated Cephalexinresistant strain.

[2] = tested on: Shigella flexneri 4a P-330; assay: In vitro antibacterial activity (MIC); type: cell-based; details: 4AP330; Shigella flexneri 4a P-330; clinically isolated Cephalexin-resistant strain; in vitro; read-out: minimum inhibitory concentration (MIC)
Description: as §5, §6

Shigella flexneri 2a = assay: In vitro antibacterial activity (MIC); type: cell-based; details: Shigella flexneri 2a; clinically isolated Cephalexin-resistant strain; in vitro; read-out: minimum inhibitory concentration (MIC)
Description: as §5, §6

[3] = tested on: Staphylococcus aureus No. 50774; assay: In vivo efficacy against systemic infection in mice; set-up: species or system male mice (ddY); details: NO.50774, 336 h, mice, sc, twice about 5 minutes and 6 hours after intravenous infection, observation 14 days, read-out: ED50 (median effective dose)
Method: as §1
(§7) Each of the injectable solutions was administered to mice infected with each of the bacteria described below under the conditions described below, and the median effective doses (ED50) obtained are shown in Table II. […]
as §2
(1) Staphylococcus aureus No. 50774; Intravenous infection with 50 to 100 LD50 (about 5×10^8 cells/mouse) of a bacterial suspension in saline. twice, about 5 minutes and 6 hours after infection. […]
as §3, §4

[4] = tested on: Pseudomonas aeruginosa No. 12; assay: as above; set-up: species or system male mice (ddY); details: NO.12, 168 h, mice, twice about 5 minutes and 6 hours after intraperitoneal infection, observation 7 days, read-out: ED50 (median effective dose)
Method: as §1, §7, §2
(3) Pseudomonas aeruginosa No. 12; Intraperitoneal infection with 50 to 100 LD50 (about 5×10^3 cells/mouse) of a bacterial suspension in trypto-soy broth with 4% mucin. twice, about 5 minutes and 6 hours after infection. […]
as §3, §4

Solubility in water = type: physicochemical; details: for solubility: deionized water at 25° C.
Method: |Solubility in deionized water at 25° C.

[5] = tested on: Serratia marcescens IFO 3736; assay: In vitro antibacterial activity (MIC); type: cell-based; details: IFO3736; Serratia marcescens IFO 3736; in vitro; read-out: minimum inhibitory concentration (MIC)
Description: as §5

[6] = tested on: Enterobacter cloacae P-2540; assay: In vitro antibacterial activity (MIC); type: cell-based
Description: as §5

[7] = tested on: Pseudomonas aeruginosa Tsuchijima; assay: In vitro antibacterial activity (MIC); type: cell-based; details: read-out: minimum inhibitory concentration (MIC)
Description: as §5

[8] = tested on: Escherichia coli NIHJ JC-2; assay: In vitro antibacterial activity (MIC); type: cell-based
Description: as §5

[9] = tested on: Klebsiella pneumoniae No. 13; assay: In vitro antibacterial activity (MIC); type: cell-based; details: Klebsiella pneumoniae No. 13; in vitro; read-out: minimum inhibitory concentration (MIC)
Description: as §5

[10] = tested on: Staphylococcus aureus 209P JC-1; assay: In vitro antibacterial activity (MIC); type: cell-based; details: read-out: minimum inhibitory concentration (MIC)
Description: as §5

Proteus morganii Kono = assay: In vitro antibacterial activity (MIC); type: cell-based; details: Morganella morganii, read-out: minimum inhibitory concentration (MIC)
Description: as §5

[11] = tested on: Pseudomonas aeruginosa No. 12; assay: In vitro antibacterial activity (MIC); type: cell-based
Description: as §5

[12] = tested on: Salmonella enteritidis No. 1891; assay: In vitro antibacterial activity (MIC); type: cell-based; details: Salmonella enterica; Salmonella enteritidis No. 1891; in vitro; read-out: minimum inhibitory concentration (MIC)
Description: as §5

Escherichia coli P-5101 [13] = assay: In vitro antibacterial activity (MIC); type: cell-based; details: P5101; Escherichia coli P-5101; in vitro; read-out: minimum inhibitory concentration (MIC)
Description: as §5

Proteus mirabilis P-2381 = assay: In vitro antibacterial activity (MIC); type: cell-based
Description: as §5

[14] = tested on: Streptococcus pyrogenes 65A; assay: In vitro antibacterial activity (MIC); type: cell-based; details: Streptococcus pyrogenes 65A; in vitro; read-out: minimum inhibitory concentration (MIC)
Description: as §5

[15] = tested on: Salmonella typhimurium S-9; assay: In vitro antibacterial activity (MIC); type: cell-based; details: Salmonella enterica, read-out: minimum inhibitory concentration (MIC)
Description: as §5

[16] = tested on: Corynebacterium pyrogenes C-21; assay: In vitro antibacterial activity (MIC); type: cell-based; details: C21; Corynebacterium pyrogenes C-21; in vitro; read-out: minimum inhibitory concentration (MIC)
Description: as §5

[17] = tested on: Staphylococcus aureus No. 50774; assay: In vitro antibacterial activity (MIC); type: cell-based
Description: as §5

[18] = P2381, Proteus mirabilis P-2381, in vitro, read-out: minimum inhibitory concentration (MIC)
[19] = P2540, Enterobacter cloacae P-2540, in vitro, read-out: minimum inhibitory concentration (MIC)
[20] = NIHJJC2, Escherichia coli NIHJ JC-2, in vitro, read-out: minimum inhibitory concentration (MIC)
[21] = Staphylococcus aureus 209P JC-1, in vitro
[22] = Proteus morganii Kono, in vitro
[23] = Pseudomonas aeruginosa No. 12, in vitro, read-out: minimum inhibitory concentration (MIC)
[24] = Staphylococcus aureus No. 50774, in vitro, read-out: minimum inhibitory concentration (MIC)

| SMILES | ED50 (Escherichia coli P-5101 [1]) [mg/kg] | MIC (Escherichia coli P-140a) [µg/mL] | MIC [2] [µg/mL] | MIC (Shigella flexneri 2a) [µg/mL] | ED50 [3] [mg/kg] | ED50 ([4]; po) [mg/kg] | ED50 ([4]; sc) [mg/kg] | solubility (Solubility in water) [mg/mL] | MIC [5] [µg/mL] | MIC ([7]; Pseudomonas aeruginosa) [µg/mL] | MIC [9] [µg/mL] | MIC [12] [µg/mL] | MIC (Escherichia coli P-5101 [13]) [µg/mL] | MIC (Proteus mirabilis P-2381; [18]) [µg/mL] | MIC [14] [µg/mL] | MIC ([15]; TYPHIMURIUM) [µg/mL] | MIC [16] [µg/mL] | MIC [6, 19] [µg/mL] | MIC [8, 20] [µg/mL] | MIC [10, 21] [µg/mL] | further results |
| --- | --- | --- | --- | --- | --- | --- | --- | --- | --- | --- | --- | --- | --- | --- | --- | --- | --- | --- | --- | --- | --- |
| O=CN1CCN(c2ncc3c(=O)c(C(=O)N[C@@H](C(=O)N[C@@H]4C(=O)N5C(C(=O)O)=C(CSc6nnnn6CC(=O)O)CS[C@H]45)c4ccc(O)cc4)c[nH]c3n2)CC1 [Compound 1, Disodium 7-{D-α-[5,8-dihydro-2-(4-formyl-1-piperazinyl)-5-oxopyrido[2,3-d]pyrimidine-6-carboxamido]-α-p-hydroxyphenylacetamido}-3-(1-carboxylatomethyl-1,2,3,4-tetrazol-5-yl)thiomethyl-3-cephem-4-carboxylate] | 1.5 | 1.56 | 6.25 | 1.56 | 13.1 | > 100 | 4.8 | ~400 | 3.13 | 1.56 | 1.56 | 0.78 | 0.78 | 0.78 | 0.2 | 1.56 | 3.13 |  |  |  | LD50 at 168 h (Acute toxicity in mice): > 2000 mg/kg; MIC ([6]; Enterobacter cloacae, P2540, read-out: minimum inhibitory concentration (MIC)): 1.56 µg/mL; MIC ([8]; Escherichia coli, NIHJJC2, read-out: minimum inhibitory concentration (MIC)): 1.56 µg/mL; MIC ([10]; Staphylococcus aureus, 209P): 6.25 µg/mL; MIC (Proteus morganii Kono): 1.56 µg/mL; MIC ([11]; Pseudomonas aeruginosa, NO.12, read-out: minimum inhibitory concentration (MIC)): 6.25 µg/mL; MIC ([17]; Staphylococcus aureus, NO.50774, read-out: minimum inhibitory concentration (MIC)): 6.25 µg/mL |
| O=CN1CCN(c2ncc3c(=O)c(C(=O)N[C@@H](C(=O)N[C@@H]4C(=O)N5C(C(=O)O)=C(CSc6nnc(CC(=O)O)s6)CS[C@H]45)c4ccc(O)cc4)c[nH]c3n2)CC1 [Compound 2, Disodium 7-{D-α-[5,8-dihydro-2-(4-formyl-1-piperazinyl)-5-oxopyrido[2,3-d]pyrimidine-6-carboxamido]-α-p-hydroxyphenylacetamido}-3-(5-carboxylatomethyl-1,3,4-thiadiazol-2-yl)thiomethyl-3-cephem-4-carboxylate] | 2.5 | 1.56 | 12.5 | 1.56 | 11.5 | > 100 | 9.6 | ~150 | 6.25 | 1.56 | 1.56 | 0.78 | 0.78 |  | 0.1 | 1.56 | 3.13 | 3.13 | 0.78 | 6.25 | LD50 at 168 h (Acute toxicity in mice; male mice (ddY), after 7 days): > 2000 mg/kg; MIC (Proteus morganii Kono; [22]): 3.13 µg/mL; MIC [11, 23]: 6.25 µg/mL; MIC (Proteus mirabilis P-2381; Proteus mirabilis, P2381, read-out: minimum inhibitory concentration (MIC)): 1.56 µg/mL; MIC [17, 24]: 6.25 µg/mL |
| Cc1nnc(SCC2=C(C(=O)O)N3C(=O)[C@@H](NC(=O)Cn4cnnn4)[C@H]3SC2)s1 [B, Cefazolin] | 5.3 |  | > 200 | 3.13 (≈ 6.89 µM) | 0.2 | > 100 | > 800 | 400 (≈ 880000 µM) | > 200 |  | 3.13 (≈ 6.89 µM) | 1.56 (≈ 3.43 µM) | 1.56 (≈ 3.43 µM) | 6.25 (≈ 13.8 µM) | 0.1 (≈ 0.22 µM) |  | 0.39 (≈ 0.858 µM) | > 200 | 1.56 (≈ 3.43 µM) | 0.2 (≈ 0.44 µM) | minimum inhibitory concentration (MIC) (Escherichia coli P-140a): > 200 µg/mL; MIC ([7]; Pseudomonas aeruginosa Tsuchijima, in vitro): > 200 µg/mL; MIC (Proteus morganii Kono; [22]): > 200 µg/mL; MIC [11, 23]: > 200 µg/mL; MIC ([15]; Salmonella typhimurium S-9, in vitro): 1.56 µg/mL (≈ 3.43 µM); MIC [17, 24]: 0.2 µg/mL (≈ 0.44 µM) |
| Cn1nnnc1SCC1=C(C(=O)O)N2C(=O)C(NC(=O)C(NC(=O)c3c[nH]c4nc(N5CCNCC5)ncc4c3=O)c3ccc(O)cc3)C2SC1 (stereo not drawn) |  |  |  |  |  |  |  |  |  |  |  |  |  |  |  |  |  |  |  |  | Solubility in water (in words) (Solubility in water; water / deionized water / aqueous medium): soluble in deionized water in the same degree as compound A |

Reference: patent US4201781A, “Substituted 7[s-oxopyrido[2,3-d]pyrimidine carboxamido acetamido]cephalosporins” (Dainippon Pharmaceutical Co., Ltd., priority 1977, dated 1980)
